The values below come from patent publication US4731109A, “Herbicidal 2-haloacetanilides” (Monsanto Company, priority 1982, dated 1988).

Where only a bound is given, the exact number is not on record here.

The test system of one experiment is Morningglory. In words: Field tests, selectivity. The following applies: in corn. Type of experiment: in vivo. The text has this: (§1) In the discussion and tables of data below, reference is made to herbicide application rates symbolized as "GR15 " and "GR85 "; these rates are given in kilograms per hectare (kg/ha) which are convertible into pounds per acre (lbs/A) by dividing the kg/ha rate by 1.12.
(§2) A further guide to the effectiveness of a chemical as a selective herbicide is the "selectivity factor" ("SF") for a herbicide in given crops and weeds. The selectivity factor is a measure of the relative degree of crop safety and weed injury and is expressed in terms of the GR15 /GR85 ratio, i.e., the GR15 rate for the crop divided by the GR85 rate for the weed, both rates in kg/ha (lb/A). In the tables below, selectivity factors are shown in parenthesis following the GR85 rate for each weed; the symbol "NS" indicates "non-selective". Marginal or undetermined selectivity is indicated by a dash (--).
(§3) It will be understood by those skilled in the art that not all of the named weeds are selectively controlled in all of the named crops under all conditions of climate, soil, moisture and/or herbicide application modes. Selectivity data for control of the foregoing weeds in the crops soybeans, corn, cotton and peanuts from a plurality of field tests in various locations under various conditions of soil, moisture, etc., is shown collectively in Tables VIII-XI, respectively.

A further experiment concerns corn. The experiment in a line: Field tests, selectivity. The experiment is classed as in vivo.
Excerpt: as §1, §2, §3

As to `CCOCN(C(=O)CCl)c1c(C)cccc1C(F)(F)F` [Example 1, N-(ethoxymethyl)-2'-trifluoromethyl-6'-methyl-2-chloroacetanilide], the GR85 in the experiment on Morningglory (P.P.I., 3 WAT) is on record as over 4.5 kg/ha; in the experiment on Morningglory (P.P.I., 6 WAT), over 4.5 kg/ha; in the experiment with Morningglory (S.A., 3 WAT), over 4.5 kg/ha; in the experiment with Morningglory (S.A., 6 WAT), over 4.5 kg/ha. Moreover, in the experiment on Morningglory (Table IX), the suppression result is recorded as “suppression of these weeds was exhibited”. Besides, the GR15 is listed as 4.8 kg/ha with corn (Corn/Cocklebur, P.P.I., 3 WAT); 4.8 kg/ha in the experiment on corn (Corn/Cocklebur, P.P.I., 6 WAT); over 4.5 kg/ha with corn (Corn/Cocklebur, S.A., 3 WAT); over 4.5 kg/ha with corn (Corn/Cocklebur, S.A., 6 WAT); 4.8 kg/ha with corn (Corn/Giant foxtail, P.P.I., 6 WAT); over 6.7 kg/ha in the experiment with corn (Corn/Giant foxtail, P.P.I., 6.5 WAT). For the same compound, the GR15 in the experiment with corn (Corn/Giant foxtail, S.A., 6 WAT) was 4.5 kg/ha; in the experiment with corn (Corn/Giant foxtail, S.A., 6.5 WAT), over 7.8 kg/ha; with corn (Corn/Morningglory, P.P.I., 3 WAT), 4.8 kg/ha; in the experiment with corn (Corn/Morningglory, P.P.I., 6 WAT), 4.8 kg/ha; with corn (Corn/Morningglory, S.A., 3 WAT), over 4.5 kg/ha; in the experiment with corn (Corn/Morningglory, S.A., 6 WAT) it was over 4.5 kg/ha.
